Measurements published in article PMC7076710, “Synthesis, Identification, and Structure–Activity Relationship Analysis of GATA4 and NKX2-5 Protein–Protein Interaction Modulators” (Journal of Medicinal Chemistry, 2019).

How the values were obtained:
COS-1 cells [1] = assay: ATP assay (CellTiter-Glo cell viability); type: cell-based; details: 24-h exposure; for reduction of cell viability (ATP content): 10 μM
Text: To investigate the toxicity as a potential cause of decreased or increased activity in luciferase reporter gene assays, we tested a set of 40 active compounds in the COS-1 cell line used for the luciferase assays. Concentration-dependent toxic effects were investigated using the lactate dehydrogenase (LDH) assay to detect necrosis and the 3-(4,5-dimethylthiazol-2-yl)-2,5-diphenyltetrazolium bromide (MTT) assay as a measure of cell viability. […] For the data analysis, compounds were classified as toxic (Figures 5 and 7) if they induced a >10% decrease in cell viability in the MTT assay at the concentration of 10 μM. The most toxic compounds (35a, 35d, 54, 58, and 63–65) in the MTT assay all contained a phenyl substituent in the southern part ring, while the ortho-nitrophenyl-derivative 39g and the phenyl-substituted thiophene 47t were nontoxic. Higher flexibility in the central parts of the ethers (35a, 35d) and N-acylated amines (58, 64) might contribute to their toxicity, because less rigid compounds are more likely to have affinity to various biological targets. Such interactions can cause toxicity. To confirm and validate the results from MTT assays, we tested three nontoxic (2, 47s, and 72) and three toxic (1, 35a, and 58) compounds in a cell viability assay measuring intracellular ATP content.
Figure 5 Effects of selected compounds on COS-1 cell viability. (A) Compound-induced necrosis was quantified with the LDH assay after a 24-h compound exposure. The data are presented as cytotoxicity percentage (% of maximal LDH release). (B) Cell viability was analyzed with the MTT assay after a 24-h compound exposure. (A,B) The data are means from 2–3 independent experiments with 3 replicate wells in each and are presented as % of control (vehicle-treated cells). The compounds have been grouped on the basis of the structure of the central part: a, amide; b, ether; c, N-acylated amine; d, amine; and e, imine. (C) The effects of selected compounds on cell viability as determined by ATP content after a 24-h compound exposure. The data are mean + SEM from three independent experiments and are presented as % of vehicle-treated cells.
A selected set of compounds were tested also in the ATP assay by using CellTiter-Glo Luminescent Cell Viability assay (Promega). Subculturing and treatment of COS-1 cells were otherwise performed similar to that in the MTT test, but the final volume of treatment was 200 μL per well. Doxorubicin was used as a positive control in the assay. After treatment, the plates were equilibrated at room temperature for 30 min, after which the media was removed and cells were washed with 100 μL of PBS. Next, 50 μL of fresh media and 50 μL of mixed CellTiter Glo Reagent were added to the plate. The contents of the plates were mixed for 2 min, and incubated at room temperature for 15 min. The luminescence was measured with VarioskanTM LUX Multimode Plate Reader (Thermo Fisher Scientific, Waltham, MA) using SkanItTM Software 5.0.

COS-1 cells [2] = assay: MTT assay (cell viability); type: cell-based; details: for MTT.1µM / MTT.3µM / MTT.10µM / MTT.30µM: cell viability; for toxicity class in the MTT assay: 24-h exposure, classified at 10 μM

Compound | reduction of cell viability (ATP content) (COS-1 cells [1]) [%] | MTT.1µM (COS-1 cells [2]; COS-1 cells) [%] | MTT.3µM (COS-1 cells [2]; COS-1 cells) [%] | MTT.10µM (COS-1 cells [2]; COS-1 cells) [%] | MTT.30µM (COS-1 cells [2]; COS-1 cells) [%] | toxicity class in the MTT assay (COS-1 cells [2]) | toxicity in the ATP assay (in words) (COS-1 cells [1]) | MTT.1µM (COS-1 cells [2]) | MTT.3µM (COS-1 cells [2]) | MTT.10µM (COS-1 cells [2]) | MTT.30µM (COS-1 cells [2])
CCN(CC)c1ccc(NC(=O)c2c(-c3ccccc3)noc2C)cc1 [Compound 1, N-[4-(Diethylamino)phenyl]-5-methyl-3-phenylisoxazole-4-carboxamide] | > 10 | 98.55 | 96.23 | 89.96 | 91.57 | toxic (Toxic compounds (cell viability <90%)) | – | – | – | – | –
Cc1onc(-c2ccccc2)c1C(=O)N(C1=NC(C)CS1)c1ccc(Cl)cc1 (stereo not shown) [Compound 2] | – | – | 105.13 | 107.32 | 87.3 | nontoxic (nontoxic compounds (cell viability >90%)) | no toxicity | – | – | – | –
Cc1onc(-c2ccccc2)c1COc1ccc(C(=O)OCCC#N)cc1 [Compound 35a, 2-Cyanoethyl 4-[(5-Methyl-3-phenylisoxazol-4-yl)methoxy]benzoate] | > 10 | – | – | – | – | most toxic | – | 83.35 | 72.67 | 66.11 | 61.55
CCN(CC)c1ccc(NC(=O)c2cnsc2)cc1 [Compound 47s] | – | – | – | – | – | nontoxic (nontoxic compounds (cell viability >90%)) | no toxicity | 103.66 | 95.56 | 92.49 | 105.44
CCC(=O)N(Cc1ccc(N(CC)CC)cc1)c1c(-c2ccccc2)noc1C [Compound 58] | > 10 | – | – | – | – | most toxic | – | 99.35 | 82.12 | 76.17 | 63.57
COc1ccc(-c2cc(NC(=O)c3ccc(C(C)(C)C)cc3)n[nH]2)cc1 [Compound 72] | – | – | – | – | – | nontoxic (nontoxic compounds (cell viability >90%)) | no toxicity | 110.93 | 101.15 | 102.37 | 107.89
N-[4-(Diethylamino)phenyl]-3-methyl-5-(4-methyl-1,2,3-thiadiazol-5-yl)isoxazole-4-carboxamide [Compound 47c] | – | – | – | – | – | high toxicity | – | 88.76 | 85.01 | 81.61 | 78.65
